Data from patent US20090285836A1 (NEREUS PHARMACEUTICALS, INC., priority 2008, published 2009).
Converted amounts (≈) assume the structure as drawn.

Columns and labels:
Snail = Snail expression (RT-PCR, Western blot); conditions: DU-145, 5 or 10 μg/ml DHMEQ, 24 h, Western blot (FIG. 21D)
Procedure: (§4) DU-145 cells were treated with 5 or 10 μg/ml DHMEQ and protein lysates were harvested 24 h after treatment for RKIP and Snail protein determination by Western blot.

YY1 = YY1 promoter luciferase reporter and YY1 expression; type: cell-based; conditions: pYY1-luciferase reporter (FIG. 11A)
Excerpt: TRAIL is produced by immune cells, and is a ligand for death receptors DR4, DR5, DcR1, and DcR2. […] Controls included untransfected (UNT) and DMSO. […] RKIP may have a direct role in the NPI-0052-induced sensitization to TRAIL. […] RKIP overexpression results in DR5 upregulation and cell sensitization to TRAIL-mediated apoptosis. YY1 acts as a suppressor of DR5 transcription and is positively regulated by NF-κB. […] Transfection controls include medium only and siRNA negative control. YY1 has a direct role in tumor sensitization to TRAIL apoptosis. […] Controls include transfected with the YY1-lucificerase reporter construct only, and cells treated with 10 μg/ml DHMEQ only. […] CMV-RKIP inhibited both mRNA transcription and protein expression of YY1. YY1 is inhibited by RKIP overexpression via NF-κB down-regulation.

RKIP = RKIP expression (RT-PCR, Western blot); conditions: DU-145, 5 or 10 μg/ml DHMEQ, 24 h, Western blot (FIG. 21D)
Procedure: RKIP transcript levels were determined by RT-PCR for each time point tested (0-12 h). Normalized mRNA values were derived by dividing the mRNA value of each target gene with the corresponding quantity of GAPDH mRNA. Statistical analysis was performed using the Mann-Whitney U test. P values: treated vs untreated cells. The data represent the mean values±SEM from three independent experiments. […] Protein levels were also determined. Protein lysates were harvested at various time points and subjected to Western Blot analysis for RKIP protein. Actin was used as an internal control for loading. Blots are representative of three independent and reproducible experiments.
as §4

SK-MEL-28 melanoma = conditions: read-out: LC50; cited from earlier work
SF-539 CNS cancer = conditions: read-out: LC50; cited from earlier work
[1] = system: National Cancer Institute's 60-cell-line panel; conditions: cited from earlier work
[2] = single agent, mice models; cited from earlier work
[3] = system: human colony-forming assays; conditions: single agent; cited from earlier work
MDA-MB-435 breast cancer = conditions: read-out: LC50; cited from earlier work
[4] = system: HCT-116 human colon carcinoma; conditions: cited from earlier work
DU-145 cells [5] = experiment: drug titration, trypan blue exclusion assay; type: cell-based, human
DU-145 cells [6] = experiment: in vitro cell migration assay; type: cell-based, human; conditions: DU-145, 100 ng/ml TNF-α
Procedure: (§1) The functional significance of the NPI-0052-induced changes in the expression profiles of the above metastasis-related gene products was expected to be reflected in the migratory and invasive cell properties.
(§2) In vitro cell invasion and migration assays were performed using the 24/well BD Biocoat 3 micron migration chambers or 8 micron Matrigel invasion chambers (Becton Dickinson Labware, Bedford, Mass.), respectively, according to manufacturer's instructions. For both assays, cells were starved for 4-5 h prior to setting up the assay by adding basal medium supplemented with 0.1% BSA. RPMI 1640 medium containing 10% serum was used as chemoatractant. […] Data were expressed as the fold cell migration derived from the mean RFU of cell migration through the membrane towards FBS divided by the mean RFU of cell migration in the absence of FBS. […] Invaded cells through Matrigel were counted under the microscope at 40× magnification. Data were expressed as the percent invasion through the Matrigel Matrix and membrane relative to the migration through the control insert membrane.
(§3) For migratory assays, 10^5 cells were seeded in the upper chamber, while in the lower chamber RPMI 1640 containing 10% FBS was added. […] Only labeled cells that had migrated through the pores of the membrane were detected. […]

DU-145 cells [7] = experiment: in vitro Matrigel cell invasion assay; type: cell-based, human; conditions: DU-145, 100 ng/ml TNF-α
Procedure: as §1, §2, §3

Molecule: O=C(NC1=CC(=O)[C@H]2O[C@H]2[C@H]1O)c1ccccc1O [DHMEQ]
- Snail protein (Snail): Snail suppression
- YY1 promoter luciferase activity (YY1): inhibited YY1 luciferase activity
- RKIP protein (RKIP): RKIP induction

Molecule: C[C@@]12OC(=O)[C@]1([C@@H](O)[C@@H]1C=CCCC1)NC(=O)[C@@H]2CCCl [NPI-0052, Salinosporamide A]
- CC50 (SK-MEL-28 melanoma): < 10 nM
- CC50 (SF-539 CNS cancer): < 10 nM
- LC50 differential between resistant and susceptible cell lines [1]: greater than 4 log
- tolerance in vivo [2]: good tolerance
- toxicity in human colony-forming assays [3]: limited toxicity
- CC50 (MDA-MB-435 breast cancer): < 10 nM
- IC50, in vitro cytotoxicity [4]: 0.011 µg/mL (≈ 0.0351 µM)
- ID20 drug concentration (subtoxic concentration) (DU-145 cells [5]): 50 nM

Molecule: TNF-α
- augmentation of migration compared to untreated cells (DU-145 cells [6]): ~10 fold
- augmentation of invasion compared to untreated cells (DU-145 cells [7]): ~10 fold
